For assay [1], the target named is T1, human orexin 2 receptor (Homo sapiens, UniProt O43614).
T1 construct: expressed in transfected cells
T1 sequence (O43614 1-444): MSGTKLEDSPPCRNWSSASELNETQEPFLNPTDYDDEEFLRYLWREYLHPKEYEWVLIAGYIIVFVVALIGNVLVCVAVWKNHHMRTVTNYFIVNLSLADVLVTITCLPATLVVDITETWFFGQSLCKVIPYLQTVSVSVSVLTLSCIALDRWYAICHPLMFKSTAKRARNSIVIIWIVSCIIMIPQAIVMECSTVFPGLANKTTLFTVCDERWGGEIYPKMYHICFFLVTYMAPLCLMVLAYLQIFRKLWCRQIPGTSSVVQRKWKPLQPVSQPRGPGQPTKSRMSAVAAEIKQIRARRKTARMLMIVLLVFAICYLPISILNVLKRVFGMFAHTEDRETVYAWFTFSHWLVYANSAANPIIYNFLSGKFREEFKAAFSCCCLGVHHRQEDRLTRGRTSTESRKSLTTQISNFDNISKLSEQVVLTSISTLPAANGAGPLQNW
In words: Calcium accumulation in cells (FLIPR), antagonism of orexin A, human orexin 2 receptor. Conditions: calcium accumulation, antagonism of orexin A, Cheng-Prusoff corrected; read-out: FLIPR hOx2R Ki. The assay is classed as cell-based.

The target of assay [2] is T1, human orexin 2 receptor. In words: Radioligand binding assay ([3H]-SB649868 competition), human orexin 2 receptor. Conditions: radioligand [3H]-SB649868; read-out: Binding hOx2R Kd. How it is done: (§1) Radioligand Binding Assay
(§2) For crude cell membrane preparations, cells (CHO, Chinese hamster ovary or HEK, human embryonic kidney) expressing human orexin 1 or human orexin 2 receptors, were washed with HEPES (10 mM, pH 7.5), scraped off the culture plates with the same buffer, and centrifuged at 4° C. for 5 min at 2500×g. The cell pellet was either stored at −80° C. or used directly. Before the experiments, cell membranes were re-suspended in binding assay buffer (10 mM HEPES, 0.5% (w/v) bovine serum albumin, pH 7.5) by homogenisation with a Polytron homogeniser at 50 Hz for 20 s. Cell membranes were also used as made available by commercial providers.
(§3) Bound radioactivity was measured, and data were analysed with the program XLFIT or Graphpad Prism. Protein concentration was determined according to the Bradford/BioRad Protein Assay Kit.
(§4) In competition experiments, cell homogenates (150 μl) were incubated in assay buffer (10 mM HEPES, pH 7.5, 0.5% (w/v) bovine serum albumin, 5 mM MgCl2, 1 mMCaCl2, and tween 0.05%) for 1 h at room temperature with about 1 nM of the radioligand [^3H]-SB649868, 66 Ci/mmole, 50 μl), and with various concentrations of compounds of the invention (50 μl) in triplicates; non-specific binding was determined in the presence of almorexant (10 μM). Reactions were terminated by vacuum filtration, 3 washes of ice cold wash buffer (Tris-HCl pH 7.4/10 mM, with NaCl 154 mM). Competition data is expressed in Table 1 as Kd [μM].

For assay [3], the target named is T2, human orexin 1 receptor (Homo sapiens, UniProt O43613).
T2 construct: expressed in transfected cells
T2 sequence (O43613 1-425): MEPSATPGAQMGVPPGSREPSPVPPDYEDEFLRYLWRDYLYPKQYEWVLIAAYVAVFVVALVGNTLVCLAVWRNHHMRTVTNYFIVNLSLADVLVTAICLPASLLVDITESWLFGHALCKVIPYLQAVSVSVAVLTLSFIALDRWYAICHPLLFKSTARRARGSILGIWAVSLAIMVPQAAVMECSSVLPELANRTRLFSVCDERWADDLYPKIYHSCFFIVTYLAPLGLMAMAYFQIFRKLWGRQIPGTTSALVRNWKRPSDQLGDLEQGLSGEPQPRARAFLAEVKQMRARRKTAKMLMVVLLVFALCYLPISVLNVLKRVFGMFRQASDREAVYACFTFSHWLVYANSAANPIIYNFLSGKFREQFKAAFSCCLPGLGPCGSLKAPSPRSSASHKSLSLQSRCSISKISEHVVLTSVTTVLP
In words: Radioligand binding assay ([3H]-SB649868 competition), human orexin 1 receptor. As to conditions: radioligand [3H]-SB649868; read-out: Binding hOx1R Kd. How it is done: as §1, §2, §3, §4

The target of assay [4] is T2, human orexin 1 receptor. In words: Calcium accumulation in cells (FLIPR), antagonism of orexin A, human orexin 1 receptor. The assay is classed as cell-based. Conditions: calcium accumulation, antagonism of orexin A, Cheng-Prusoff corrected; read-out: FLIPR hOx1R Ki.

By Ki is commonly meant a measure of affinity in units of concentration, obtained from inhibition or displacement. As usually defined, the Kd is the constant that tells how readily two partners part at equilibrium.

On to `Cc1cc(C)nc(N2CCC3(CC2)NCCN(Cc2nn(C)cc2-c2cccc(C(F)(F)F)c2)C3=O)n1` [Example 1.41, 9-(4,6-Dimethyl-pyrimidin-2-yl)-4-((1-methyl-4-(3-(trifluoromethyl)phenyl)-1H-pyrazol-3-yl)methyl)-1,4,9-triazaspiro[5.5] undecan-5-one], for which the values for the inhibition constant Ki in assay [1] and in assay [4] were 16 nM and 1580 nM, respectively. Further, the Kd came out at 182 nM in assay [2] and 3170 nM in assay [3].

Turning to `Cc1cc(C)nc(N2CCC3(CC2)NCCN(Cc2nn(C)cc2-c2cccc(Cl)c2)C3=O)n1` [Example 1.42, 4-((4-(3-Chlorophenyl)-1-methyl-1H-pyrazol-3-yl)methyl)-9-(4,6-dimethyl-pyrimidin-2-yl)-1,4,9-triazaspiro[5.5] undecan-5-one], the Ki worked out at 83 nM in assay [1] and 3280 nM in assay [4]. Besides, the Kd in assay [2] amounted to 391 nM; in assay [3], 6490 nM.

`Cc1cc(C)nc(N2CCC3(CC2)NCCN(Cc2nn(C)cc2-c2cccc(OC(F)(F)F)c2)C3=O)n1` [Example 1.46, 9-(4,6-Dimethyl-pyrimidin-2-yl)-4-((1-methyl-4-(3-(trifluoro-methoxy)phenyl)-1H-pyrazol-3-yl)methyl)-1,4,9-triazaspiro[5.5] undecan-5-one]: the inhibitory constant (Ki) in assay [1] stood at 5 nM; in assay [4] it was 2040 nM. Also, the equilibrium dissociation constant (Kd) in assay [2] came to 91 nM; in assay [3], 3880 nM.

On to `Cc1cc(C)nc(N2CCC3(CC2)NCCN(Cc2nn(C)cc2-c2cccc(OC(C)C)c2)C3=O)n1` [Example 1.47, 9-(4,6-Dimethyl-pyrimidin-2-yl)-4-((4-(3-iso-propoxyphenyl)-1-methyl-1H-pyrazol-3-yl)methyl)-1,4,9-triazaspiro[5.5] undecan-5-one], for which the results for the Ki in assay [1] and in assay [4] were 1 nM and 135 nM, respectively. The Kd in assay [2] worked out at 7 nM; in assay [3] it was 187 nM.

For the compound `CC(=O)c1cccc(-c2cn(C)nc2CN2CCNC3(CCN(c4nc(C)cc(C)n4)CC3)C2=O)c1` [Example 1.48, 4-((4-(3-Acetylphenyl)-1-methyl-1H-pyrazol-3-yl)methyl)-9-(4,6-dimethyl-pyrimidin-2-yl)-1,4,9-triazaspiro[5.5] undecan-5-one], the values for the inhibitory constant (Ki) in assay [1] and in assay [4] were 12 nM and 2740 nM, respectively. Moreover, the Kd in assay [2] was 99 nM; in assay [3], 2270 nM.

As to `Cc1cc(C)nc(N2CCC3(CC2)NCCN(Cc2nn(C)cc2-c2cccc(OCC4CC4)c2)C3=O)n1` [Example 1.52, 4-((4-(3-(Cyclo-propylmethoxy)phenyl)-1-methyl-1H-pyrazol-3-yl)methyl)-9-(4,6-dimethylpyrimidin-2-yl)-1,4,9-triazaspiro[5.5] undecan-5-one], the Ki in assay [1] was 2.8 nM; in assay [4], 286 nM. Also, the Kd in assay [2] came out at 50 nM; in assay [3], 436 nM.

As to `Cc1cc(C)nc(N2CCC3(CC2)NCCN(Cc2nn(C)cc2-c2cccc(OCC(C)C)c2)C3=O)n1` [Example 1.53, 9-(4,6-Dimethyl-pyrimidin-2-yl)-4-((4-(3-isobutoxyphenyl)-1-methyl-1H-pyrazol-3-yl)methyl)-1,4,9-triazaspiro[5.5] undecan-5-one], the Ki in assay [1] turned out to be 7 nM; in assay [4] it was 331 nM. Besides, the Kd in assay [2] was 45 nM; in assay [3], 319 nM.

`COc1ccc2[nH]nc(CN3CCNC4(CCN(c5nc(C)cc(C)n5)CC4)C3=O)c2c1` [Example 1.56, 9-(4,6-Dimethyl-pyrimidin-2-yl)-4-((5-methoxy-1H-indazol-3-yl)methyl)-1,4,9-triazaspiro[5.5] undecan-5-one]: the inhibition constant (Ki) in assay [1] is 2.7 nM; in assay [4], 594 nM. The dissociation constant (Kd) in assay [2] was found to be 11 nM; in assay [3], 492 nM.

The values above are taken from patent US20120165331A1, “Di/tri-aza-spiro-C9-C11alkanes” (priority 2010, published 2012).
